Source: ChEMBL document CHEMBL1201862, “PubChem BioAssay data set” (2004)
Calls of active or inactive are those of the source.

Columns and labels:
[1] = non-specific 3'UTR reporter inhibition in Clone20-Shn3RL – cell-based, Renilla luciferase, cherry-picked, counter-screen for Shn3 inhibitor project, dose response (AID 624133); format: functional
[2] = reduction of Shn3 3'UTR-driven luciferase in osteoblasts – cell-based, Clone20 osteoblasts, firefly luciferase, cherry-picked, dose response (AID 624132); format: functional;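 further: firefly luciferase luminescence from reporter carrying the Shn3 3'UTR in osteoblasts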
[3] = fluconazole-exposed Candida albicans growth modulators – fluorescence, retest, confirmation (AID 2467); format: functional, cell-based
[4] = target: Heat shock protein HSP 90-alpha (Homo sapiens, UniProt P07900); format: functional, organism-based
[5] = test system: Streptococcus sp. 'group A'; test: Streptococcus pyogenes SK(-)GAS viability under kanamycin – luminescence, BacTiterGlo, confirmation, counter-screen for streptokinase expression inhibitor project, dose response (AID 1900); format: functional, organism-based
[6] = target: T1, Streptokinase A (Streptococcus pyogenes serotype M1, UniProt P10520); test: viability-normalized secreted streptokinase activity reduction – plasminogen activation absorbance, OD405, dose response (AID 1914); format: functional, Streptococcus pyogenes M1 GAS;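 further: secreted streptokinase activity via plasminogen activation per viability signal from cell pellet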
T1 sequence (P10520 whole entry): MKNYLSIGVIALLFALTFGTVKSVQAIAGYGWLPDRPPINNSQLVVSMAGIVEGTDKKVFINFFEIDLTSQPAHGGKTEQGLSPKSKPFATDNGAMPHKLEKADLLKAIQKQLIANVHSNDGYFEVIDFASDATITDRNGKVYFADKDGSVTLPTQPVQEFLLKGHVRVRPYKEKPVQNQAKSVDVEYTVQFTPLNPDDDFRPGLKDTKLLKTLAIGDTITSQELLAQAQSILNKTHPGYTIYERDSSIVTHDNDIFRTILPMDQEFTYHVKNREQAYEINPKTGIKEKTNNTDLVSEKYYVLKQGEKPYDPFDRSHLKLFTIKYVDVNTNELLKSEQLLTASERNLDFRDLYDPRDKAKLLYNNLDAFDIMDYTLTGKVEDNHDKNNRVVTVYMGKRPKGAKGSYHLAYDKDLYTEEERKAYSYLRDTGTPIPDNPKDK

[7] = NIH-3T3 fibroblast cytotoxicity, dose response, cytotoxicity control, cell-based, fluorescence, Alamar Blue, secondary assay (AID 2327); format: functional;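 further: NIH-3T3 mouse fibroblasts cultured with fluconazole at 8 µg/mL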
[8] = test system: Streptococcus; test: GAS UMAA2166 growth inhibition – luminescence, BacTiterGlo, counter-screen for streptokinase expression inhibitor project, dose response (AID 1915); format: functional, organism-based;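 further: potency for reduction of bacterial viability or growth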
[9] = target: T2, Polyadenylate-binding protein 1 (Homo sapiens, UniProt P11940); test: MLLE binding blockers, Cy5 peptide tracer – biochemical, fluorescence polarization, Cy5-PAM2 peptide, secondary, miRNA deadenylation inhibitor project, dose response (AID 602260); format: functional; settings: read-out: IC50_Mean
[10] = target: T3, Protein RecA (Mycobacterium tuberculosis, UniProt P9WHJ3); test: Fluorescence Cell-Free Homogeneous Dose Retest to Identify Inhibitors of RecA-Intein Splicing Activity. [Related pubchem assays (depositor defined):AID2097, AID2223, AID489010, AID492950]; format: functional
T3 sequence (P9WHJ3 whole entry): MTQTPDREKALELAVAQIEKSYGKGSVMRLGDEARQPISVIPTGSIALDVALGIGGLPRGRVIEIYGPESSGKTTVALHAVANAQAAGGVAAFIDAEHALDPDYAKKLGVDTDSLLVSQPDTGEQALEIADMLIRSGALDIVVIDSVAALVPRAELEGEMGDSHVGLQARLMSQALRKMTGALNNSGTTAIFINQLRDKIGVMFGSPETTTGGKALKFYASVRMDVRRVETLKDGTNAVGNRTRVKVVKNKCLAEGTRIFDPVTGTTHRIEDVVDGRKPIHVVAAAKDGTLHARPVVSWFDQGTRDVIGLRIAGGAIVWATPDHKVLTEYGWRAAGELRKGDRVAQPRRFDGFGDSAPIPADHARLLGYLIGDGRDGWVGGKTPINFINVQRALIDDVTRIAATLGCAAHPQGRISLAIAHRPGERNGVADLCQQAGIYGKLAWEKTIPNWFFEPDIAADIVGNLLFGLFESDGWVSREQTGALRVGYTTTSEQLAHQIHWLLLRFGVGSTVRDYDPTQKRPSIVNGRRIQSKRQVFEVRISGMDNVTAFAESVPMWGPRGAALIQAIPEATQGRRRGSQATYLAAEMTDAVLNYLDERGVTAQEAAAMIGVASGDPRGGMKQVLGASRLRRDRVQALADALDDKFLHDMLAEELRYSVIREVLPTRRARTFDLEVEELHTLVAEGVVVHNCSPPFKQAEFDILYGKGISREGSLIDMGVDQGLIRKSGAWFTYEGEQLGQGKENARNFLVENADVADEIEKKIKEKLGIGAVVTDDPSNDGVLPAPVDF

[11] = viability loss in HEK293T cells – cell-based, cherry-picks, cytotoxicity control for HIV Vif inhibitor project, dose response (AID 652208); format: functional
[12] = target: T2, Polyadenylate-binding protein 1; test: MLLE domain peptide-binding blockers, IC50 – biochemical, fluorescence polarization, FITC-PAM2 peptide, dose response (AID 602259); format: functional; settings: read-out: IC50_Mean
[13] = loss of viability in HepG2 cells – cell-based, CellTiter-Glo, cherry-picked, cytotoxicity control for Shn3 inhibitor project, dose response (AID 624134); format: functional
[14] = target: T4, Replicative DNA helicase DnaB (Mycobacterium tuberculosis, UniProt P9WMR3); test: DnaB intein splicing inhibitors, dose response, biochemical, cell-free fluorescence (AID 449749); format: functional
T4 sequence (P9WMR3 whole entry): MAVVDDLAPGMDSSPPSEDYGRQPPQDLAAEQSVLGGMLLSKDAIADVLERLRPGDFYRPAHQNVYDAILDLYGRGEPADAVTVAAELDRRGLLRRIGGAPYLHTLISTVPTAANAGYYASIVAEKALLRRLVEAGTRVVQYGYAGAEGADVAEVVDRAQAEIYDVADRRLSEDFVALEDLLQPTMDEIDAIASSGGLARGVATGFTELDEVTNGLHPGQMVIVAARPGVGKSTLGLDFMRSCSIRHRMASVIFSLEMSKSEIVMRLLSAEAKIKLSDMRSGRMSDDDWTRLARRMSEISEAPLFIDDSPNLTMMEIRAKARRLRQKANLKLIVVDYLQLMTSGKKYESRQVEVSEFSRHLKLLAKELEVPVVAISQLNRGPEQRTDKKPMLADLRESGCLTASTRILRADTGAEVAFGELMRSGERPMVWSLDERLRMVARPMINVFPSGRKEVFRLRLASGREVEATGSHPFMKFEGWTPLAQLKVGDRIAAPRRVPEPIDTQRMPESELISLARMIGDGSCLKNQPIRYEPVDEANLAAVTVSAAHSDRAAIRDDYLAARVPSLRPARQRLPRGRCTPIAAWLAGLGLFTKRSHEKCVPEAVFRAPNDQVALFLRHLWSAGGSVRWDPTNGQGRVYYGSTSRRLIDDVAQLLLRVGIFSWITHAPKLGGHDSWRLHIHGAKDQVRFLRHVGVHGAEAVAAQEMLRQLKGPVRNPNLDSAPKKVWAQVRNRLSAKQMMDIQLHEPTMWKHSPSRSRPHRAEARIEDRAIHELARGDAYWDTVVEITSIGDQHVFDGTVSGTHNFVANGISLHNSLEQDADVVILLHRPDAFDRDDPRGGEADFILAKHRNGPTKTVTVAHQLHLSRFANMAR

[15] = cells; format: functional, cell-based
[16] = target: T5, Trace amine-associated receptor 1 (Homo sapiens, UniProt Q96RJ0); test: Fluorescence-based cell-based high throughput dose response assay to identify agonists of the human trace amine associated receptor 1 (TAAR1).; format: functional
T5 sequence (Q96RJ0 whole entry): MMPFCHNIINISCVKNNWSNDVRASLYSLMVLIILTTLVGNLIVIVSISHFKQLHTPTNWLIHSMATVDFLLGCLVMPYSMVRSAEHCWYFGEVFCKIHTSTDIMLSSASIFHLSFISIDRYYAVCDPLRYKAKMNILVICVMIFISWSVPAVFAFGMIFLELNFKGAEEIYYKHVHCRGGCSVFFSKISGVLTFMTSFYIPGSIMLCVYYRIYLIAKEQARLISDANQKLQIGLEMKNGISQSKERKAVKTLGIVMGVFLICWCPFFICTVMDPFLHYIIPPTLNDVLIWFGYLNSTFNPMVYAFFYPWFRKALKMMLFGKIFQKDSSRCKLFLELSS

[17] = cells; format: functional, cell-based; remark: listed apart in the source
[18] = target: T5, Trace amine-associated receptor 1; test: Counterscreen for agonists of the human trace amine associated receptor 1 (hTAAR1): Fluorescence-based cell-based high throughput dose response assay to identify hTAAR1 agonist that also desensitize TAAR1 receptor response.; format: functional

T2 sequence (P11940 whole entry): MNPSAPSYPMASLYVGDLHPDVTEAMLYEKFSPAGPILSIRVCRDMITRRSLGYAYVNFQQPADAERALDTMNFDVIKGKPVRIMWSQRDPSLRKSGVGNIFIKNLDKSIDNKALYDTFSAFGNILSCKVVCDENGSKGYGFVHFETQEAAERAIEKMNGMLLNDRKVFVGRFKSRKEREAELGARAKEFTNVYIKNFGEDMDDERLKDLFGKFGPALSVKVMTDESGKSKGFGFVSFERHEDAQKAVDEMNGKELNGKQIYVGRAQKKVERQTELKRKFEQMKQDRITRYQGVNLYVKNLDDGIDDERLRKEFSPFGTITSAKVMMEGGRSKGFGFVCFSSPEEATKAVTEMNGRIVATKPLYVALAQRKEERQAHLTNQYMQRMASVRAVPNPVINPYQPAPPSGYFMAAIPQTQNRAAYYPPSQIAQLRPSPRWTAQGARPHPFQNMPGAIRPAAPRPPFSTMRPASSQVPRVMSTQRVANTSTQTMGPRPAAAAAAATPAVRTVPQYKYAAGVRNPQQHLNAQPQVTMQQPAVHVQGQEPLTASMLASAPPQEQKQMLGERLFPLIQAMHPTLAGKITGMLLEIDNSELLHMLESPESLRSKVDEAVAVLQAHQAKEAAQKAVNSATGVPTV

Structure (SMILES) | AC50 [1] | AC50 [2] | EC50 [3] | AC50 [4] | EC50 [5] | EC50 [6] | EC50 [7] | EC50 [8] | IC50 [9] | EC50 [10] | AC50 [11] | IC50 [12] | AC50 [13] | AC50 [14] | EC50 [15] | EC50 [16] | IC50 [17] | IC50 [18]
Cc1ccc(C(c2cc(Cl)c3cccnc3c2O)N2CCN(C)CC2)cc1 (configuration not stated) | 16.4 µM (active) | 5.54 µM (active) | 0.374 µM (active) | 1.59 µM (active) | 1.49 µM (active) | > 150 µM (not active) | 3.84 µM (inconclusive) | 15.3 µM (active) | > 66 µM (inactive) | 1.96 µM (active) | > 52 µM (inactive) | > 66 µM (inactive) | 35.2 µM (active) | > 380 µM (inactive) |  |  |  | 
CCCOC1CCCN(C(=O)c2cc(Cl)c(Cl)cc2C(=O)O)C1 (configuration not stated) |  |  |  |  |  |  |  |  |  |  |  |  |  |  | > 29.9 µM (inactive) | 8.64 µM (active) | > 29.9 µM (inactive) | > 29.9 µM (inactive)
C/C(=N\CCc1ccccc1)C1=C(O)CCC1=O |  |  |  |  |  |  |  |  |  |  |  |  |  |  | > 29.9 µM (inactive) | 1.94 µM (active) | > 29.9 µM (inactive) | 8.63 µM (active)
